Results taken from paper PMC4608580, “Synthesis and Evaluation of Biological Activity of Antimicrobial – Pro-Proliferative Peptide Conjugates” (PLoS ONE, 2015).
Like-named read-outs stand apart in the source and are kept apart here. No end group written: not given here.

Key:
[1] = tested on: Candida parapsilosis (CCM 8260); format: cell-based; conditions: broth microdilution, Mueller-Hinton broth + 2% glucose, about 2.5 x 10^3 CFU/mL, 37°C, 24 h, absorbance 590 nm, at least triplicate
Excerpt: (§1) Escherichia coli (PCM 2057), Staphylococcus aureus (PCM 2054), Staphylococcus epidermidis (PCM 2118), Pseudomonas aeruginosa (PCM 499) were obtained from Polish Collection of Microorganisms. Fungi strains Candida albicans (CCM 8186), Candida glabrata (CCM 8270), Candida parapsilosis (CCM 8260), Candida krusei (CCM 8271), Candida tropicalis (CCM 8264) were acquired from Czech Collection of Microorganisms.
(§2) Luria-Bertani broth (LB) and Sabouraud Dextrose broth (SB) (Biocorp, Poland) were used for cultivation of bacteria and fungi strains, respectively. Antimicrobial activity of peptides was analyzed through determination of MIC (minimal inhibitory concentration) parameter according to the standard microdilution technique performed on 96-well plates. Mueller-Hinton broth (MHB) was used as the working medium for all bacterial strains, while in case of fungi it was additionally supplemented with 2% glucose.
(§3) Briefly, inoculum was prepared from freshly grown cultures of microorganisms being at their exponential phase of growth. Each well of 96-well plates containing 100 μL of serially diluted peptides in PBS (phosphate buffer saline) at concentration ranging from 2 to 250 μg/mL were inoculated with 100 μL of approximately 10^5 CFU/mL of bacterial suspension or about 2.5 x 10^3 CFU/mL of fungi suspended in a double concentrated Mueller-Hinton broth (supplemented with 2% glucose for Candida spps.). Then plates were incubated overnight at 37°C and absorbance was read at 590 nm after 24 h. Cultures without peptide were treated as positive control, while uninoculated Mueller-Hinton broth was defined as negative control. All measurements were run at least in triplicate.
(§4) All peptides were screened against the wide range of microorganisms, including Gram-negative, Gram-positive bacteria and fungi from Candida species (Table 2). Broth microdilution method for MIC determination was used as a standard procedure. All assays were performed on liquid Mueller-Hinton broth, which was additionally supplemented with 2% glucose when fungicidal activity towards Candida spps. was analyzed.

[2] = tested on: Candida tropicalis (CCM 8264); format: cell-based; conditions: broth microdilution, Mueller-Hinton broth + 2% glucose, about 2.5 x 10^3 CFU/mL, 37°C, 24 h, absorbance 590 nm, at least triplicate
Excerpt: as §1, §2, §3, §4

[3] = tested on: Pseudomonas aeruginosa (PCM 499); format: cell-based
Excerpt: as §1, §2, §3, §4

[4] = tested on: Staphylococcus epidermidis (PCM 2118); format: cell-based
Excerpt: as §1, §2, §3, §4

[5] = tested on: Escherichia coli (PCM 2057); format: cell-based
Excerpt: as §1, §2, §3, §4

[6] = tested on: Staphylococcus aureus (PCM 2054); format: cell-based
Excerpt: as §1, §2, §3, §4

[7] = tested on: Candida krusei (CCM 8271); format: cell-based; conditions: broth microdilution, Mueller-Hinton broth + 2% glucose, about 2.5 x 10^3 CFU/mL, 37°C, 24 h, absorbance 590 nm, at least triplicate
Excerpt: as §1, §2, §3, §4

[8] = tested on: Candida albicans (CCM 8186); format: cell-based; conditions: broth microdilution, Mueller-Hinton broth + 2% glucose, about 2.5 x 10^3 CFU/mL, 37°C, 24 h, absorbance 590 nm, peptide 2 to 250 μg/mL, at least triplicate
Excerpt: as §1, §2, §3, §4

[9] = tested on: Candida glabrata (CCM 8270); format: cell-based; conditions: broth microdilution, Mueller-Hinton broth + 2% glucose, about 2.5 x 10^3 CFU/mL, 37°C, 24 h, absorbance 590 nm, at least triplicate
Excerpt: as §1, §2, §3, §4

[10] = tested on: B. subtilis; format: cell-based; conditions: 24 h
Procedure: as §2, §3, §4

[11] = tested on: B. cereus; format: cell-based; conditions: 24 h
Procedure: as §2, §3, §4

[12] = Circular dichroism, alpha-helical content; format: physicochemical; conditions: CD, mean residue ellipticity at 222 nm (Eq 1), peptide 0.4 mg/ml in 30 mM SDS, room temperature
Procedure: Circullar dichroism spectra of analyzed compounds were recorded on a Jasco J-815 spectropolarimeter using a quartz cell of 1 mm path length between 195–260 nm at room temperature. Peptides at concentration of 0.4 mg/ml were dissolved in water or 30 mM SDS solution. SDS micelle system was used as the simplified model of negatively charged lipid membrane. On the basis of the obtained results the alpha-helical content was determined from the mean residue ellipticities at 222 nm according to Eq 1: %Helix=([θ]obs/([θ]helixx(1−2.57/l))x100, (1) where [θ] obs is the experimentally observed mean-residue ellipticity at 222 nm, [θ]helix is the theoretical ellipticity of peptide of infinite length with a 100% helix population, taken as -39 500 deg·cm^2/dmol, and l is the number of peptide bonds.
Circular dichroism method was applied to obtain a basic information about the secondary structure of the synthesized compounds (with the exception of CAR, CAR3, DAL, CTEN2) in two chemical environments, water and 30 mM SDS. As expected, all the tested compounds in water adopted a random-coil structure, while in the presence of 30 mM SDS most of them formed α-helices with characteristic negative minima around 208 and 220 nm. […] The examples of CD spectra for selected peptides could be seen in supporting information (Figure A in S1 File). On the basis of the experimentally obtained values of the mean residue ellipticities of peptides at 222 nm their alpha-helical content was calculated according to the Eq 1 (Table 1).

[13] = tested on: immortalized human HaCaT keratinocytes; assay: Cell proliferation assay (MTT); format: cell-based; conditions: 72 h, serum-free DMEM; for Effect on HaCaT proliferation (MTT), in words: lower concentrations, 1 or 10 μg/mL; for Effect on HaCaT cell viability/proliferation (MTT), in words: whole range 1–50 μg/mL, vs. control without peptide, triplicate
Procedure: (§5) In our study two kind of cells were used: immortalized human HaCaT keratinocytes (DKFZ Heidelberg, Germany) and primary dermal fibroblasts obtained from 3 healthy donors. Both types of the used cell lines were grown in Dulbecco's modified Eagle's medium (DMEM) (Sigma–Aldrich, Germany), that contained […] of glucose, […] of L-glutamine, sodium pyruvate and sodium bicarbonate. Additionally, medium was supplemented with 10% of FCS (fetal calf serum, Sigma-Aldrich, Germany), 100 U/mL of penicillin and 100 μg/mL streptomycin (Sigma-Aldrich, Germany). The cells were grown in culture dishes (BD, USA) under standard conditions in a humidified atmosphere with 5% CO2 at 37°C and medium was changed every 2 days.
(§6) The fibroblasts and keratinocytes were seeded at density of 4500 and 6000 cells per well, respectively, into 96-well plates suspended in a medium supplemented with 10% of FCS. After 24 h the media were exchanged with serum- and antibiotic- free DMEM and tested peptides dissolved in PBS were added yielding final concentration ranging from 1 to 50 μg/mL. Cells were incubated for the next 24 hours, when the medium was exchanged again and fresh portion of peptides (used at the same concentrations as previously) was added. Incubation was continued for the next 48 hours (the overall time of cell exposition to peptide was 72 h). At the end of the experiment cells were treated with 20 μL of MTT (5 mg/mL in PBS). After 3 h at 37°C under 5% CO2 medium was discarded and replaced by 6mM HCl in isopropanol. After 15 min when the purple crystals of formazan were fully solubilized, absorbance was read at 570 nm with a plate reader. The optical density reflects the level of cell viability as MTT is converted in purple formazan product only in the presence of viable mitochondria of the living cells.
Fig 1 Pro-proliferative activity of the tested peptides towards human keratinocytes (A) and fibroblasts (B). Cells were incubated for 72 hours in serum-free DMEM medium in the presence of peptides applied at concentrations of 1,10, 25 and 50 μg/mL, respectively. The data represents results of MTT assay expressed as the percentage of the cell viability in comparison to their control sample (cells incubated in serum-free DMEM without tested peptides), additional positive control corresponds to the cells incubated in the presence of 10% FCS. All experiments were performed independently in triplicate. *P < 0.05, **P < 0.01, ***P < 0.001 vs. control.
In order to evaluate a long-term effect of peptides, experiments were carried out for 72 hours. Before addition of the tested compounds, the cell medium was exchanged for the fresh one not containing any serum or antibiotic.

[14] = tested on: human primary dermal fibroblasts; assay: Cell proliferation assay (MTT); format: cell-based; conditions: 72 h, serum-free DMEM, peptide at 1–25 μg/mL
Procedure: Biopsies of healthy human skin were obtained aseptically from three donors (47–69 years old) undergoing circumcision after obtaining their written informed consent. All the procedures were approved by the Ethics Committee of Medical University of Gdansk (NKEBN/483/2011. Issued: 2011-12-19). The samples were washed several times with sterile PBS (Sigma-Aldrich, Germany) containing antibiotic (200 U/mL penicillin and 200 μg/mL streptomycin), after which, the subcutaneous tissue was cut off with a sharp blade. The resulting sheets were cut into small fragments, washed two times with sterile PBS and treated with 6 U/mL dispase II (BD, USA) overnight at 4°C to separate epidermis and dermis. The dermis was then digested with 1.0 mg/mL collagenase type I (from Clostridium histolyticum Sigma-Aldrich, Germany) for 2 hours at 37°C to isolate fibroblasts. Cells were used between the 2nd and 4th passage in all experiments.
as §5
as §6, with “At the end of the experiment cells were treated with 20 μL of MTT (5 mg/mL in PBS). After 3 h at 37°C under 5% CO2 medium was discarded and replaced by 6mM HCl in isopropanol.” left out, “The optical density reflects the level of cell viability as MTT is converted in purple formazan product only in the presence of viable mitochondria of the living cells.” left out
Fig 1 Pro-proliferative activity of the tested peptides towards human keratinocytes (A) and fibroblasts (B). […] The data represents results of MTT assay expressed as the percentage of the cell viability in comparison to their control sample (cells incubated in serum-free DMEM without tested peptides), additional positive control corresponds to the cells incubated in the presence of 10% FCS. […]

[15] = broth microdilution, Mueller-Hinton broth, approximately 10^5 CFU/mL, 37°C, 24 h, absorbance 590 nm, at least triplicate
[16] = broth microdilution, Mueller-Hinton broth, approximately 10^5 CFU/mL, 37°C, absorbance 590 nm, at least triplicate

Row | Substance | MIC C. parapsilosis [1] [µg/mL] | MIC C.tropicalis [2] [µg/mL] | MIC P. aeruginosa [3, 15] [µg/mL] | MIC S. epidermidis [4, 15] [µg/mL] | MIC E.coli [5, 15] [µg/mL] | MIC S.aureus [6, 15] [µg/mL] | MIC C.krusei [7] [µg/mL] | MIC C. albicans [8] [µg/mL] | MIC C.glabrata [9] [µg/mL] | MIC B. subtilis [10, 16] [µg/mL] | MIC B. cereus [11, 16] [µg/mL] | α-helicity [12] [%] | Effect on HaCaT cell viability/proliferation (MTT), in words [13] | also measured
1 | EGLEPG-PEG-IKKILSKIKKLLK-NH2 [CTEN2-PEG-LK6, conjugate of CTEN2 and LK6 joined by PEG-linker] | 125 | 7.8 | >125 | 7.8 | >125 | >125 | 15.6 | 125 | >125 | 7.8 | >125 | 20 |  | 
2 | KKVVFWVKFK-NH2 [KSLW, reference compound] |  |  |  |  |  |  |  |  |  |  |  |  |  | MIC P. aeruginosa ([3]; PCM 499, 24 h): 25 µg/mL; MIC S. epidermidis ([4]; PCM 2118, 24 h): 7.8 µg/mL; MIC E.coli ([5]; PCM 2057, 24 h): 7.8 µg/mL; MIC S.aureus ([6]; PCM 2054, 24 h): 25 µg/mL; MIC B. subtilis [10]: 7.8 µg/mL; MIC B. cereus [11]: 50 µg/mL
3 | IKKILSKIKKLLK-NH2 [LK6, reference compound] |  |  |  |  |  |  |  |  |  |  |  |  |  | MIC P. aeruginosa ([3]; PCM 499, 24 h): 25 µg/mL; MIC S. epidermidis ([4]; PCM 2118, 24 h): 7.8 µg/mL; MIC E.coli ([5]; PCM 2057, 24 h): >125 µg/mL; MIC S.aureus ([6]; PCM 2054, 24 h): 100 µg/mL; MIC B. subtilis [10]: 7.8 µg/mL; MIC B. cereus [11]: 50 µg/mL
4 | ΒAHβAHβAH-PEG-IKKILSKIKKLL-NH2 [CAR3-PEG-DK5, conjugate of CAR3 and DK5 joined by PEG-linker] | 2.0 | 7.8 | 50 | 7.8 | >125 | >125 | 7.8 | 100 | 125 | 15.6 | >125 | 27 |  | Effect on HaCaT proliferation (MTT), in words [13]: induced cell proliferation
5 | βAH-PEG-IKKILSKIKKLL-NH2 [CAR-PEG-DK5, conjugate of carnosine and DK5 joined by PEG-linker] | 31.3 | <2 | 50 | 3.9 | 100 | 125 | 3.9 | 15.6 | 62.5 | 3.9 | 100 | 41 |  | Effect on HaCaT proliferation (MTT), in words [13]: induced cell proliferation
6 | IKKILSKIKKLL-PEG-YAGFLR [DK5-PEG-DAL, conjugate of DK5 and dalargin joined by PEG-linker (8-amino-3,6-dioxaoctanoic acid)] | 2.0 | 7.8 | >125 | 7.8 | 7.8 | >125 | 7.8 | 100 | >125 | 7.8 | >125 | 20 | negative dose-response relationship | 
7 | EGLEPG [CTEN2] |  |  |  |  |  |  |  |  |  |  |  |  | non-toxic | Effect on fibroblast cell count (MTT), in words [14]: Increased cell count
8 | YAGFLR [DAL, dalargin, synthetic Leu-enkephalin analogue, reference compound] |  |  |  |  |  |  |  |  |  |  |  |  | non-toxic | 
